Measurements: patent US11578130B2, “Regulatable chimeric antigen receptor” (Novartis AG, priority 2013, dated 2023)
Like-named read-outs stand apart in the source and are kept apart here.

How the values were obtained:
[1] = tested on: PD-1-positive CD4, CD8 and PD-1-negative CD4 T cells; experiment: FACS analysis of PBMC for PD-1-positive and PD-1-negative T cells after RAD001 treatment; type: in vivo, human; conditions: adjusted for differences in baseline PD-1 expression; for decrease in PD-1-positive CD8 T cells: pooled RAD001 cohort compared to placebo cohort
[2] = tested on: influenza vaccine strains; experiment: Clinical trial: serologic response to 2012 seasonal influenza vaccine, primary endpoint across the 3 vaccine strains (HI GMT ratio); type: in vivo, human; conditions: for primary endpoint of the study (HI GMT ratio versus placebo): ITT population
[3] = tested on: B/Brisbane/60/2008; experiment: Clinical trial: hemagglutination inhibition titers and seroconversion, vaccine strain B; type: in vivo, human
Protocol: The trial was observer-blind because the placebo in the RAD001 0.5 mg daily and 20 mg weekly cohorts differed slightly from the RAD001 tablets in those cohorts. […] The treatment duration for all cohorts was 6 weeks during which time subjects underwent safety evaluations in the clinic every 2 weeks. After subjects had been dosed for 4 weeks, RAD001 steady state levels were measured pre-dose and at one hour post dose. After completing the 6 week course of study drug, subjects were given a 2 week drug free break to reverse any possible RAD001-induced immunosuppression, and then were given a 2012 seasonal influenza vaccination (Agrippal®, Novartis Vaccines and Diagnostics, Siena, Italy) containing the strains H1N1 A/California/07/2009, H3N2 A/Victoria/210/2009, B/Brisbane/60/2008. Four weeks after influenza vaccination, subjects had serum collected for influenza titer measurements. Antibody titers to the 3 influenza vaccine strains as well as to 2 heterologous strains (A/H1N1 strain A/New Jersey/8/76 and A/H3N2 strain A/Victoria/361/11) were measured by standard hemagglutination inhibition assay (Kendal, A P et al. (1982) Concepts and procedures for laboratory-based influenza surveillance. Atlanta: Centers for Disease Control and Prevention B17-B35).
The ability of RAD001 to improve immune function in elderly volunteers was evaluated by measuring the serologic response to the 2012 seasonal influenza vaccine. The hemagglutination inhibition (HI) geometric mean titers (GMT) to each of the 3 influenza vaccine strains at baseline and 4 weeks after influenza vaccination are provided in Table 22. The primary analysis variable was the HI GMT ratio (4 weeks post vaccination/baseline). […] This endpoint was chosen because a 1.2-fold increase in the influenza GMT ratio induced by the MF-59 vaccine adjuvant was associated with a decrease in influenza illness (Iob, A et al. (2005) Epidemiol Infect 133:687-693).
Rates of seroconversion 4 weeks after influenza vaccination were also evaluated. Seroconversion was defined as the change from a negative pre-vaccination titer (i.e., HI titer <1:10) to post-vaccination HI titer ≥1:40 or at least 4-fold increase from a non-negative (≥1:10) pre-vaccination HI titer.

[4] = tested on: A/H1N1 strain A/New Jersey/8/76; type: in vivo, human
[5] = tested on: A/H1N1/California/07/2009; experiment: Clinical trial: serum IgG and IgM specific for A/H1N1/California/07/2009; type: in vivo, human; conditions: RAD001 versus placebo treated cohorts
Protocol: Levels of IgG and IgM specific for the A/H1N1/California/07/2009 were measured in serum samples taken before and 4 weeks after influenza vaccination as described previously (Spensieri, F. et al. (2013) Proc. Natl. Acad. Sci. USA 110:14330-14335). Results were expressed as fluorescence intensity.

[6] = tested on: Jurkat cells with NFAT-LUC reporter (JNL); experiment: Activation of CD19 RCAR with extracellular FKBP/FRB switch (half and full switches) by RAD001, NFAT luciferase; type: cell-based; conditions: extracellular half switch 1; 5 nM and 50 nM
Protocol: The RCAR constructs were expressed in a Jurkat reporter cell line. Jurkat cells with NFAT-LUC reporter (JNL) were grown to the density of 0.5×10^6/ml in Jurkat cell growth media with puromycin at 0.5 μg/ml. For each transfection 2.5×10^6 cells were spin down at 100 g for 10 minutes. Two μg of DNA per RCAR construct were used per transfection. Amaxa Nucleofector solution V and supplement I was mixed and 100 μl was added into the tube with DNA construct. The mixture was then added to the cells and transferred to the electroporation cuvette. Electroporation was done under setting X-001 using Amaxa Nucleofector II Device. 0.5 ml of growth media was added immediately after electroporation and the mixture were transferred into 2 ml growth media in one well of the 6-well plate.
After one hour, RAD001 compound was applied at various concentrations: 0 nM, 0.01 nM, 0.03 nM, 0.1 nM, 0.3 nM, 1 nM, 5 nM, and 50 nM. Tissue culture plate was coated with 5 μg/ml of anti anti-CD19 antibody or isotype control for 2 hrs, blocked with the blocking buffer (DPBS with 5% serum) for 1 hour. The transfected cells with or without Rad001 were resuspended and added to the target plate with 100 μl per well and incubated for 18 hrs. Luciferase One Glo reagent 100 μl was added per well. The samples were incubated for 5 min at 37° C. and then luminescence was measured using Envision plate reader.

## CO[C@H]1C[C@@H]2CC[C@@H](C)[C@@](O)(O2)C(=O)C(=O)N2CCCC[C@H]2C(=O)O[C@H]([C@H](C)C[C@@H]2CC[C@@H](OCCO)[C@H](OC)C2)CC(=O)[C@H](C)/C=C(\C)[C@@H](O)[C@@H](OC)C(=O)[C@H](C)C[C@H](C)/C=C/C=C/C=C/1C [RAD001, (1R,9S,12S,15R,16E,18R,19R,21R,23S,24E,26E,28E,30S,32S,35R)-1,18-dihydroxy-12-{(1R)-2-[(1S,3R,4R)-4-(2-hydroxyethoxy)-3-methoxycyclohexyl]-1-methylethyl}-19,30-dimethoxy-15,17,21,23,29,35-hexamethyl-11,36-dioxa-4-aza-tricyclo[30.3.1.04,9]hexatriaconta-16,24,26,28-tetraene-2,3,10,14,20-pentaone]
[1]; week 6
  decrease in PD-1-positive CD8 T cells: 37.4%
[1]; week 6, pooled RAD cohort compared to placebo cohort
  decrease in PD-1+ CD4 T cells: 30.2%
[1]; week 12
  decrease in PD-1-positive CD8 T cells: 41.4%
[1]; week 12, pooled RAD cohort compared to placebo cohort
  decrease in PD-1-positive CD4 T cells: 32.7%
[2]; RAD001 0.5 mg daily or 5 mg weekly
  primary endpoint of the study (HI GMT ratio versus placebo): met the GMT primary endpoint
[2]; RAD001 20 mg weekly
  primary endpoint of the study (HI GMT ratio versus placebo): but not higher dose (20 mg weekly) cohort met the primary endpoint
[2]; human, in vivo
  increase in influenza titers in subgroup: greater RAD001-associated increase in titers than did the ITT population
[3]; Baseline (2 weeks prior to influenza vaccination), RAD001 0.5 mg daily, N = 50
  HI GMT, B: 44.2
[3]; Baseline (2 weeks prior to influenza vaccination), RAD001 5 mg weekly, N = 49
  HI GMT, B: 64.8
[3]; Intention to Treat Population, 0.5 mg, N = 48
  Percent of subjects with seroconversion to influenza 4 weeks after vaccination, B: 27%
[3]; Intention to Treat Population, 5 mg, N = 49
  Percent of subjects with seroconversion to influenza 4 weeks after vaccination, B: 22%
[3]; Intention to Treat Population, 20 mg, N = 48
  Percent of subjects with seroconversion to influenza 4 weeks after vaccination, B: 19%
[3]; RAD001 0.5 mg daily, N = 50
  GMT ratio (week 4 post vaccination/baseline), B: 2.5
[3]; RAD001 5 mg weekly, N = 49
  GMT ratio (week 4 post vaccination/baseline), B: 2.2
[3]; RAD001 20 mg weekly, N = 49
  GMT ratio (week 4 post vaccination/baseline), B: 2.1
[3]; Subjects with Baseline Titers <=40, 0.5 mg, * p-value < 0.05 versus placebo
  Percent of subjects with seroconversion to influenza 4 weeks after vaccination, B: 40* Percent
[3]; Subjects with Baseline Titers <=40, 5 mg
  Percent of subjects with seroconversion to influenza 4 weeks after vaccination, B: 33%
[3]; Subjects with Baseline Titers <=40, 20 mg
  Percent of subjects with seroconversion to influenza 4 weeks after vaccination, B: 28%
[3]; Week 4 after influenza vaccination, RAD001 0.5 mg daily, N = 50
  HI GMT, B: 98.4
[3]; Week 4 after influenza vaccination, RAD001 5 mg weekly, N = 49
  HI GMT, B: 117.3
[3]; Week 4 after influenza vaccination, RAD001 20 mg weekly, N = 49
  HI GMT, B: 99.2
[4]; RAD001 5 mg weekly
  Percentage of subjects who seroconvert to heterologous strain 4 weeks after seasonal influenza vaccination, A/H1N1 strain: A/New Jersey/8/76: 16%
[4]; RAD001 20 mg weekly
  Percentage of subjects who seroconvert to heterologous strain 4 weeks after seasonal influenza vaccination, A/H1N1 strain: A/New Jersey/8/76: 8%
[4]; RAD001 as compared to placebo cohorts
  increase in the HI GMT ratios for the heterologous strain: higher
[5]
  post-vaccination anti-influenza IgM and IgG levels: did not differ
[6]
  NFAT activity at the higher dosages of RAD001: no inhibition of activity was observed
